Experimental data from ChEMBL document CHEMBL1125312, “Highly potent, orally active diester macrocyclic human renin inhibitors” (J Med Chem, 1992).

How the values were obtained:
Rattus norvegicus [1] = experiment: Cumulative dose excreted after intraduodenal administration at 4-6 hours in rats; assay type: ADME, organism-based; details: in vivo, other
Rattus norvegicus [2] = experiment: Compound was evaluated for the percentage of feces excretion of radioactivity, by male Sprague-Dawley rats after oral administration of compound dose (1 mg/kg) at 24-48 hr; assay type: ADME, organism-based; details: in vivo
Rattus norvegicus [3] = experiment: Compound was evaluated for the percentage of urine excretion of radioactivity, by male Sprague-Dawley rats after oral administration of compound dose (1 mg/kg) at 24-48 hr; assay type: ADME, organism-based; details: in vivo
Rattus norvegicus [4] = experiment: Cumulative dose excreted after intravenous administration at 4-6 hours in rats; assay type: ADME, organism-based; details: in vivo
Rattus norvegicus [5] = experiment: Compound was evaluated for the percentage of urine excretion of radioactivity, by male Sprague-Dawley rats after intravenous administration of compound dose (1 mg/kg) at 24-48 hr; assay type: ADME, organism-based; details: in vivo
[6] = Cumulative dose excreted after intravenous administration at 0.5-1 hours in rats; assay type: ADME, organism-based; details: rat, in vivo
Rattus norvegicus [7] = experiment: Compound was evaluated for the percentage of feces excretion of radioactivity, by male Sprague-Dawley rats after intravenous administration of compound dose (1 mg/kg) at 0-24 hr; assay type: ADME, organism-based; details: in vivo
Rattus norvegicus [8] = experiment: Cumulative dose excreted after intravenous administration at 2-3 hours in rats; assay type: ADME, organism-based; details: in vivo
Rattus norvegicus [9] = experiment: Compound was evaluated for the percentage of urine excretion of radioactivity, by male Sprague-Dawley rats after oral administration of compound dose (1 mg/kg) at 48-72 hr; assay type: ADME, organism-based; details: in vivo
[10] = Cumulative dose excreted after intraduodenal administration at 0-0.5 hours in rats; assay type: ADME, organism-based; details: rat, in vivo
Rattus norvegicus [11] = experiment: Compound was evaluated for the percentage of feces excretion of radioactivity, by male Sprague-Dawley rats after oral administration of compound dose (1 mg/kg) at 48-72 hr; assay type: ADME, organism-based; details: in vivo
[12] = Cumulative dose excreted after intraduodenal administration at 3-4 hours in rats; assay type: ADME, organism-based; details: rat, in vivo
Rattus norvegicus [13] = experiment: Compound was evaluated for the percentage of feces excretion of radioactivity, by male Sprague-Dawley rats after intravenous administration of compound dose (1 mg/kg) at 24-48 hr; assay type: ADME, organism-based; details: in vivo
Rattus norvegicus [14] = experiment: Compound was evaluated for the percentage of feces excretion of radioactivity, by male Sprague-Dawley rats after oral administration of compound dose (1 mg/kg) at 0-24 hr; assay type: ADME, organism-based; details: in vivo
[15] = Cumulative dose excreted after intraduodenal administration at 2-3 hours in rats; assay type: ADME, organism-based; details: rat, in vivo
Rattus norvegicus [16] = experiment: Cumulative dose excreted after intravenous administration at 6-8 hours in rats; assay type: ADME, organism-based; details: in vivo
Rattus norvegicus [17] = experiment: Cumulative dose excreted after intraduodenal administration at 8-24 hours in rats; assay type: ADME, organism-based; details: in vivo, other
Rattus norvegicus [18] = experiment: Cumulative dose excreted after intravenous administration at 8-24 hours in rats; assay type: ADME, organism-based; details: in vivo
Rattus norvegicus [19] = experiment: Cumulative dose excreted after intravenous administration at 0-0.5 hours in rats; assay type: ADME, organism-based; details: in vivo
Rattus norvegicus [20] = experiment: Cumulative dose excreted after intravenous administration at 3-4 hours in rats; assay type: ADME, organism-based; details: in vivo
[21] = Cumulative dose excreted after intraduodenal administration at 1.0-1.5 hours in rats; assay type: ADME, organism-based; details: rat, in vivo
Renin = molecular target: T1, Renin (Homo sapiens, UniProt P00797); experiment: Inhibitory activity against human renin inhibition (at pH 7.4)
T1 sequence (P00797 whole entry): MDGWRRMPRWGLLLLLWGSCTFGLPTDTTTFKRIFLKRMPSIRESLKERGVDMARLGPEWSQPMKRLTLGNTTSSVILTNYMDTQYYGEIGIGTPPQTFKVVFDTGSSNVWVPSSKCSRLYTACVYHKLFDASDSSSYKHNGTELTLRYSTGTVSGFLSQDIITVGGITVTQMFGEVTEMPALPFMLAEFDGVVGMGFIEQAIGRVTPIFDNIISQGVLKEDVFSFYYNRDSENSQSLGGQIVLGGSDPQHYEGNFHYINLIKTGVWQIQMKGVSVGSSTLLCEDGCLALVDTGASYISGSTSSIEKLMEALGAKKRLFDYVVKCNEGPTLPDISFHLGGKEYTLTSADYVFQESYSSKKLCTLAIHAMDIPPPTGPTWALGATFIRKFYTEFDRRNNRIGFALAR

Rattus norvegicus [22] = experiment: Cumulative dose excreted after intravenous administration at 1.5-2 hours in rats; assay type: ADME, organism-based; details: in vivo
Rattus norvegicus [23] = experiment: Compound was evaluated for the percentage of urine excretion of radioactivity, by male Sprague-Dawley rats after oral administration of compound dose (1 mg/kg) at 0-24 hr; assay type: ADME, organism-based; details: in vivo
[24] = Cumulative dose excreted after intraduodenal administration at 0.5-1.0 hours in rats; assay type: ADME, organism-based; details: rat, in vivo
[25] = Cumulative dose excreted after intraduodenal administration at 1.5-2.0 hours in rats; assay type: ADME, organism-based; details: rat, in vivo
[26] = Cumulative dose excreted after intravenous administration at 1.0-1.5 hours in rats; assay type: ADME, organism-based; details: rat, in vivo
[27] = Cumulative dose excreted after intraduodenal administration at 6-8 hours in rats; assay type: ADME, organism-based; details: rat, in vivo
Rattus norvegicus [28] = experiment: Compound was evaluated for the percentage of urine excretion of radioactivity, by male Sprague-Dawley rats after intravenous administration of compound dose (1 mg/kg) at 0-24 hr; assay type: ADME, organism-based; details: in vivo

Dose excreted (Rattus norvegicus [1]): 4.3% | Dose excreted (Rattus norvegicus [2]): 3.3% | Dose excreted (Rattus norvegicus [3]): 0.7% | Dose excreted (Rattus norvegicus [4]): 47.5% | Dose excreted (Rattus norvegicus [5]): 0.7% | Dose excreted [6]: 42.7% | Dose excreted (Rattus norvegicus [7]): 43.5% | Dose excreted (Rattus norvegicus [8]): 46.4% | Dose excreted (Rattus norvegicus [9]): 0.3% | Dose excreted [10]: 2.4% | Dose excreted (Rattus norvegicus [11]): 0.2% | Dose excreted [12]: 4.2% | Dose excreted (Rattus norvegicus [13]): 3.5% | Dose excreted (Rattus norvegicus [14]): 81.7% | Dose excreted [15]: 4% | Dose excreted (Rattus norvegicus [16]): 47.9% | Dose excreted (Rattus norvegicus [17]): 4.7% | Dose excreted (Rattus norvegicus [18]): 48.7% | Dose excreted (Rattus norvegicus [19]): 35.7% | Dose excreted (Rattus norvegicus [20]): 46.9% | Dose excreted [21]: 3.6% | IC50 (Renin): 1.3 nM | Dose excreted (Rattus norvegicus [22]): 45.5% | Dose excreted (Rattus norvegicus [23]): 3.1% | Dose excreted [24]: 3.3% | Dose excreted [25]: 3.9% | Dose excreted [26]: 44.6% | Dose excreted [27]: 4.4% | Dose excreted (Rattus norvegicus [28]): 18.5%
Structure (SMILES): O=C1CCC[C@H](CN2CCOCC2)OC(=O)[C@H](O)[C@H](CC2CCCCC2)NC(=O)[C@@H](NC(=O)[C@H](Cc2ccccc2)NC2CN3CCC2CC3)CO1 (some centres undefined)
